The values below come from ChEMBL document CHEMBL1136669, “Synthesis of aza and oxaglutamyl-p-nitroanilide derivatives and their kinetic studies with gamma-glutamyltranspeptidase” (Bioorg Med Chem Lett, 2003).

The test deals with Glutathione hydrolase 1 proenzyme (Rattus norvegicus, UniProt P07314). Put plainly: Compound was tested for the competitive inhibition of rat kidney gamma-glutamyltranspeptidase (gamma-GGT).
Sequence of Glutathione hydrolase 1 proenzyme (P07314 1-379 limits assumed): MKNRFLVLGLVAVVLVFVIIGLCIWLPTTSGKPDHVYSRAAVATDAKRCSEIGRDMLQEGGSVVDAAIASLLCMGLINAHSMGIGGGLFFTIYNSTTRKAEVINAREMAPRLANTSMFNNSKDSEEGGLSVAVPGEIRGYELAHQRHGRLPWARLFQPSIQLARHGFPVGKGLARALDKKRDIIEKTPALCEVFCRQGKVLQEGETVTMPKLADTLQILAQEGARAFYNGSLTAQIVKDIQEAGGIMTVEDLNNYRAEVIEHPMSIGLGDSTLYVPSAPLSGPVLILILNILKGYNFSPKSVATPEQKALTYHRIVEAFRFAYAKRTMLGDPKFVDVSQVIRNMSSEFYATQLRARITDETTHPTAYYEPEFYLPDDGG
Sequence of Glutathione hydrolase 1 proenzyme (P07314 380-568 limits assumed): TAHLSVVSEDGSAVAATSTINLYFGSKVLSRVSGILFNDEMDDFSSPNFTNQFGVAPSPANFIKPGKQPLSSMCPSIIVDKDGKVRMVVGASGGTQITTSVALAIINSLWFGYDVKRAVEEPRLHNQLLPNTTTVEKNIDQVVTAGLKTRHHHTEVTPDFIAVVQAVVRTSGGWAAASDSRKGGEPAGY

Turning to `Cl.N[C@@H](CNC(=O)Nc1ccc([N+](=O)[O-])cc1)C(=O)O`, the Ki comp is given as 3.8 mM.
